From US12201632B2, “Levoketoconazole for treatment of congenital adrenal hyperplasia and primary aldosteronism” (Strongbridge Dublin Limited, priority 2018, dated 2025)

Assays:
[1] = system: EAS associated adrenal hyperplasia no. 1 primary culture; assay: Steroid profile by LC/MS-MS in EAS associated adrenal hyperplasia no. 1; format: cell-based, human; details: for 11-DOC absolute change vs ACTH stimulation with vehicle / 11-DOC percentage change vs ACTH stimulation with vehicle / 17-OHP absolute change vs ACTH stimulation with vehicle / 17-OHP percentage change vs ACTH stimulation with vehicle / Androstenedione absolute change vs ACTH stimulation with vehicle / Androstenedione percentage change vs ACTH stimulation with vehicle / Corticosterone absolute change vs ACTH stimulation with vehicle / Corticosterone percentage change vs ACTH stimulation with vehicle / Cortisol absolute change vs ACTH stimulation with vehicle / Cortisol percentage change vs ACTH stimulation with vehicle / DHEA absolute change vs ACTH stimulation with vehicle / DHEAS absolute change vs ACTH stimulation with vehicle / Prog absolute change vs ACTH stimulation with vehicle / Prog percentage change vs ACTH stimulation with vehicle / Testosterone absolute change vs ACTH stimulation with vehicle / Testosterone percentage change vs ACTH stimulation with vehicle: EAS associated adrenal hyperplasia no. 1, ACTH; for 11-DOC absolute change vs ACTH stimulation with vehicle / 11-DOC percentage change vs ACTH stimulation with vehicle / 17-OHP absolute change vs ACTH stimulation with vehicle / 17-OHP percentage change vs ACTH stimulation with vehicle / Androstenedione absolute change vs ACTH stimulation with vehicle / Androstenedione percentage change vs ACTH stimulation with vehicle / Corticosterone absolute change vs ACTH stimulation with vehicle / Corticosterone percentage change vs ACTH stimulation with vehicle / Cortisol absolute change vs ACTH stimulation with vehicle / Cortisol percentage change vs ACTH stimulation with vehicle / DHEA absolute change vs ACTH stimulation with vehicle / DHEAS absolute change vs ACTH stimulation with vehicle / Prog absolute change vs ACTH stimulation with vehicle / Prog percentage change vs ACTH stimulation with vehicle / Testosterone absolute change vs ACTH stimulation with vehicle / Testosterone percentage change vs ACTH stimulation with vehicle / 11-DOC absolute change vs control / 11-DOC percentage change vs control / 17-OHP absolute change vs control / 17-OHP percentage change vs control / Androstenedione absolute change vs control / Androstenedione percentage change vs control / Corticosterone absolute change vs control / Corticosterone percentage change vs control / Cortisol absolute change vs control / Cortisol percentage change vs control / DHEA absolute change vs control / DHEAS absolute change vs control / Prog absolute change vs control / Prog percentage change vs control / Testosterone absolute change vs control / Testosterone percentage change vs control: 3 days; for 11-DOC absolute change vs control / 11-DOC percentage change vs control / 17-OHP absolute change vs control / 17-OHP percentage change vs control / Androstenedione absolute change vs control / Androstenedione percentage change vs control / Corticosterone absolute change vs control / Corticosterone percentage change vs control / Cortisol absolute change vs control / Cortisol percentage change vs control / DHEA absolute change vs control / DHEAS absolute change vs control / Prog absolute change vs control / Prog percentage change vs control / Testosterone absolute change vs control / Testosterone percentage change vs control: EAS associated adrenal hyperplasia no. 1, Basal
Description: To obtain primary cultures, adrenal specimens (adrenocortical adenomas, adrenal hyperplasias and adrenocortical carcinomas) were collected after adrenalectomy at the department of Surgery, Erasmus University Medical Center, Rotterdam, the Netherlands, between April 2016 and May 2018. The study was conducted under guidelines that have been approved by the Medical Ethics Committee of the Erasmus Medical Center and informed consent was obtained from all patients. Immediately after surgery, specimens were minced into small pieces of 2-3 mm^3, washed in culture medium and centrifuged for 5 minutes at 600 g. The tissue was stored overnight in culture medium at 4° C., where after the tissue was centrifuged again and the supernatant was removed. Fragments were dissociated using 10-25 ml collagenase type 1 (2 mg/ml: Sigma-Aldrich), followed by incubation at 37° C. for up to two hours. Ficoll (GE healthcare) density gradient separation was used once or twice as required in order to separate contaminating red blood cells from the tumor cells. Cell viability and cell amount were counted by trypan blue exclusion. Dissociated cells were plated at a density of 10^5 cells per well. ACTH-secreting corticotroph pituitary adenoma tissue from patients with Cushing's disease (n=2) was available after transsphenoidal surgery. Single-cell suspensions of the pituitary adenoma tissues were prepared as previously described in detail.
Primary culture conditions for primary cultures were similar as described in the section ‘cell culture and compounds’, but with small adjustments: ACTH was used at a concentration of 85 pM (250 pg/mL), treatment was started 3-4 days after plating of the cells and cells were incubated for 3 days, and; for pituitary primary cultures, levoketoconazole and racemic ketoconazole were only tested at a concentration of 1 μM. Owing to a limited number of cells obtained from the specimens, not all experiments were carried out in every primary culture.
Cortisol concentrations were measured in the supernatant using a chemiluminescence immunoassay system (Immulite 2000XPi; Siemens DPC Inc., Los Angeles, Calif., USA). In addition, we carried out multi-steroid analysis by liquid chromatography/mass spectrometry (LC/MS-MS) to accurately quantify androstenedione, corticosterone, cortisol, 11-deoxycortisol, DHEA, DHEAS, progesterone, 17-hydroxyprogesterone, and testosterone. Concentrations that were tested on the LC/MS-MS were closest to 50% inhibition or maximal inhibition of cortisol as determined by the immunoassay. Steroids were quantified with respect to a calibration series, with internal standards. Steroids were quantified on a Xevo TQS LC-MS/MS (Waters Chromatography).
Statistical analysis was performed using Graphpad Prism 6.0 (Graphpad Software, San Diego, CA). Non-linear regression curve fitting program was used to calculate the half maximal inhibitory concentrations (IC50) on cortisol production. Effects of both compounds on the steroid profile were measured as absolute change compared to control and compared using the Student's t-test. When assessing differences between effects of both compounds, the percentage change was evaluated and compared in order to correct for differences in the vehicle treated control cells. Values of P<0.05 were considered statistically significant and data are presented as mean SEM.

[2] = cited from earlier work

CC(=O)N1CCN(c2ccc(OCC3COC(Cn4ccnc4)(c4ccc(Cl)cc4Cl)O3)cc2)CC1 (racemic) [racemic ketoconazole, Ketoconazole]
11-DOC absolute change vs ACTH stimulation with vehicle ([1]; 0.05 μM): +76.63 nmol/l | 11-DOC percentage change vs ACTH stimulation with vehicle ([1]; 0.05 μM): (+25%**) | 17-OHP absolute change vs ACTH stimulation with vehicle ([1]; 0.05 μM): +8.133 nmol/l | 17-OHP percentage change vs ACTH stimulation with vehicle ([1]; 0.05 μM): (+52%) | Androstenedione absolute change vs ACTH stimulation with vehicle ([1]; 0.05 μM): -7.475 nmol/L | Androstenedione percentage change vs ACTH stimulation with vehicle ([1]; 0.05 μM): (−39%) | Corticosterone absolute change vs ACTH stimulation with vehicle ([1]; 0.05 μM): +105.7 nmol/l | Corticosterone percentage change vs ACTH stimulation with vehicle ([1]; 0.05 μM): (+31%) | Cortisol absolute change vs ACTH stimulation with vehicle ([1]; 0.05 μM): -62.25 nmol/L | Cortisol percentage change vs ACTH stimulation with vehicle ([1]; 0.05 μM): −11% | DHEA absolute change vs ACTH stimulation with vehicle ([1]; 0.05 μM): <LLQ | DHEAS absolute change vs ACTH stimulation with vehicle ([1]; 0.05 μM): <LLQ | Prog absolute change vs ACTH stimulation with vehicle ([1]; 0.05 μM): +3.425 nmol/l | Prog percentage change vs ACTH stimulation with vehicle ([1]; 0.05 μM): +96% | Testosterone absolute change vs ACTH stimulation with vehicle ([1]; 0.05 μM): -0.1750 nmol/L | Testosterone percentage change vs ACTH stimulation with vehicle ([1]; 0.05 μM): (−28%) | Cortisol percentage change vs ACTH stimulation with vehicle ([1]; 0.05 μM, listed as RK): (−11%*) | Prog percentage change vs ACTH stimulation with vehicle ([1]; 0.05 μM, listed as RK): (+96%**) | 11-DOC absolute change vs ACTH stimulation with vehicle ([1]; 5 μM): -402.7 nmol/L | 11-DOC percentage change vs ACTH stimulation with vehicle ([1]; 5 μM): (−99%) | 17-OHP absolute change vs ACTH stimulation with vehicle ([1]; 5 μM): -28.44 nmol/L | 17-OHP percentage change vs ACTH stimulation with vehicle ([1]; 5 μM): (−90%) | Androstenedione absolute change vs ACTH stimulation with vehicle ([1]; 5 μM): -14.79 nmol/L | Androstenedione percentage change vs ACTH stimulation with vehicle ([1]; 5 μM): (−98%) | Corticosterone absolute change vs ACTH stimulation with vehicle ([1]; 5 μM): -397.6 nmol/L | Corticosterone percentage change vs ACTH stimulation with vehicle ([1]; 5 μM): (−100%) | Cortisol absolute change vs ACTH stimulation with vehicle ([1]; 5 μM): -643.5 nmol/L | Cortisol percentage change vs ACTH stimulation with vehicle ([1]; 5 μM): (−100%) | DHEA absolute change vs ACTH stimulation with vehicle ([1]; 5 μM): <LLQ | DHEAS absolute change vs ACTH stimulation with vehicle ([1]; 5 μM): <LLQ | Prog absolute change vs ACTH stimulation with vehicle ([1]; 5 μM): +39.86 nmol/l | Prog percentage change vs ACTH stimulation with vehicle ([1]; 5 μM): (+1292%) | Testosterone absolute change vs ACTH stimulation with vehicle ([1]; 5 μM): -0.4350 nmol/L | Testosterone percentage change vs ACTH stimulation with vehicle ([1]; 5 μM): (−85%) | 11-DOC absolute change vs control ([1]; 0.05 μM): -62.23 nmol/L | 11-DOC percentage change vs control ([1]; 0.05 μM): (−27%) | 17-OHP absolute change vs control ([1]; 0.05 μM): +0.6833 nmol/l | 17-OHP percentage change vs control ([1]; 0.05 μM): (+7.5%) | Androstenedione absolute change vs control ([1]; 0.05 μM): -5.850 nmol/L | Androstenedione percentage change vs control ([1]; 0.05 μM): (−55%) | Corticosterone absolute change vs control ([1]; 0.05 μM): -68.60 nmol/L | Corticosterone percentage change vs control ([1]; 0.05 μM): (−32%) | Cortisol absolute change vs control ([1]; 0.05 μM): -86.78 nmol/L | Cortisol percentage change vs control ([1]; 0.05 μM): (−57%) | DHEA absolute change vs control ([1]; 0.05 μM): <LLQ | DHEAS absolute change vs control ([1]; 0.05 μM): <LLQ | Prog absolute change vs control ([1]; 0.05 μM): +4.475 nmol/l | Prog percentage change vs control ([1]; 0.05 μM): (+108%) | Testosterone absolute change vs control ([1]; 0.05 μM): -0.1500 nmol/L | Testosterone percentage change vs control ([1]; 0.05 μM): (−32%) | 11-DOC absolute change vs control ([1]; 5 μM): -270.7 nmol/L | 11-DOC percentage change vs control ([1]; 5 μM): (−98%) | 17-OHP absolute change vs control ([1]; 5 μM): -15.07 nmol/L | 17-OHP percentage change vs control ([1]; 5 μM): (−92%) | Androstenedione absolute change vs control ([1]; 5 μM): -8.219 nmol/L | Androstenedione percentage change vs control ([1]; 5 μM): (−94%) | Corticosterone absolute change vs control ([1]; 5 μM): -166.5 nmol/L | Corticosterone percentage change vs control ([1]; 5 μM): (−98%) | Cortisol absolute change vs control ([1]; 5 μM): -165.2 nmol/L | Cortisol percentage change vs control ([1]; 5 μM): (−99%) | DHEA absolute change vs control ([1]; 5 μM): <LLQ | DHEAS absolute change vs control ([1]; 5 μM): <LLQ | Prog absolute change vs control ([1]; 5 μM): +19.89 nmol/l | Prog percentage change vs control ([1]; 5 μM): (+537%***) | Testosterone absolute change vs control ([1]; 5 μM): -0.2688 nmol/L | Testosterone percentage change vs control ([1]; 5 μM): (−66%) | total change of steroids ([1]; EAS associated adrenal hyperplasia no. 1, basal condition): -218.5 nmol/L | total sum of change of the steroids: increase ([1]; EAS associated adrenal hyperplasia no. 1, under ACTH stimulation): 124.0 nmol/L | accumulation in a subject's body over repeated dosing [2]: accumulate in a subject's body over repeated dosing
